Laboratory results as given in PubChem BioAssay AID248 (DTP/NCI, 2004).
Inconclusive results and toxic doses are left out. Square brackets hold non-standard residues; d marks the D form. Peptide text beside a SMILES is read from it. βAla = NCCC(=O)O

System: L1210 leukemia ip in BDF1 mice, survival T/C
Experiment: NCI In Vivo Anticancer Drug Screen. Data for tumor model L1210 Leukemia (intraperitoneal) in B6D2F1 (BDF1) mice
Details: endpoint: mean survival time, higher = longer survival
Method in brief: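 Value reflects the ratio of survival in compound-treated mice to survival in vehicle-treated controls, with both groups carrying the same transplanted tumor.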

[1] = dose: 100.0 mg/kg/injection, schedule: Q04DX003 (ip), vehicle: Klucel (hydroxypropylcellulose) (HPC)
[2] = dose: 200.0 mg/kg/injection, schedule: Q04DX003 (ip), vehicle: Klucel (hydroxypropylcellulose) (HPC)
[3] = dose: 400.0 mg/kg/injection, schedule: Q04DX003 (ip), vehicle: Klucel (hydroxypropylcellulose) (HPC)
[4] = dose: 50.0 mg/kg/injection, schedule: Q01DX009 (ip), vehicle: saline with Tween-80
[5] = dose: 100.0 mg/kg/injection, schedule: Q01DX009 (ip), vehicle: saline with Tween-80
[6] = dose: 200.0 mg/kg/injection, schedule: Q01DX009 (ip), vehicle: saline with Tween-80
[7] = dose: 100.0 mg/kg/injection, schedule: Q01DX009 (ip), vehicle: Klucel (hydroxypropylcellulose) (HPC)
[8] = dose: 200.0 mg/kg/injection, schedule: Q01DX009 (ip), vehicle: Klucel (hydroxypropylcellulose) (HPC)
[9] = dose: 100.0 mg/kg/injection, schedule: Q01DX001 (ip), vehicle: Klucel (hydroxypropylcellulose) (HPC)
[10] = dose: 200.0 mg/kg/injection, schedule: Q01DX001 (ip), vehicle: Klucel (hydroxypropylcellulose) (HPC)
[11] = dose: 400.0 mg/kg/injection, schedule: Q01DX001 (ip), vehicle: Klucel (hydroxypropylcellulose) (HPC)
[12] = dose: 100.0 mg/kg/injection, schedule: Q04DX003 (ip), vehicle: saline with Tween-80
[13] = dose: 200.0 mg/kg/injection, schedule: Q04DX003 (ip), vehicle: saline with Tween-80
[14] = dose: 100.0 mg/kg/injection, schedule: Q01DX001 (ip), vehicle: saline
[15] = dose: 200.0 mg/kg/injection, schedule: Q01DX001 (ip), vehicle: saline
[16] = dose: 50.0 mg/kg/injection, schedule: Q01DX001 (ip), vehicle: carboxymethylcellulose (CMC)
[17] = dose: 100.0 mg/kg/injection, schedule: Q01DX001 (ip), vehicle: carboxymethylcellulose (CMC)
[18] = dose: 200.0 mg/kg/injection, schedule: Q01DX001 (ip), vehicle: carboxymethylcellulose (CMC)
[19] = dose: 400.0 mg/kg/injection, schedule: Q04DX003 (ip), vehicle: saline
[20] = dose: 50.0 mg/kg/injection, schedule: Q01DX001 (ip), vehicle: saline
[21] = dose: 400.0 mg/kg/injection, schedule: Q01DX001 (ip), vehicle: saline
[22] = dose: 400.0 mg/kg/injection, schedule: Q01DX009 (ip), vehicle: saline with Tween-80
[23] = dose: 400.0 mg/kg/injection, schedule: Q04DX003 (ip), vehicle: saline with Tween-80
[24] = dose: 400.0 mg/kg/injection, schedule: Q01DX001 (ip), vehicle: carboxymethylcellulose (CMC)

With COc1ccc2c(c1)C1(C)CCCC(C)C1=CC2=O (configuration not stated) the T/C (dose: 25.0 mg/kg/injection, schedule: Q01DX001 (ip), vehicle: other) was 100 % of control, the T/C (dose: 50.0 mg/kg/injection, schedule: Q01DX001 (ip), vehicle: other) was 100 % of control and the T/C (dose: 100.0 mg/kg/injection, schedule: Q01DX001 (ip), vehicle: other) was 97 % of control.

Fc1cccc2c1[nH]c1cc3ccncc3cc12 was tested, and the T/C [1] was 98 % of control, the T/C [2] was 90 % of control and the T/C [3] was 93 % of control.

For CN(C)N=Nc1c(Cl)cc(Cl)cc1Cl, the T/C [4] was 107 % of control, the T/C [5] was 100 % of control and the T/C [6] was 107 % of control.

In the case of CNC(=O)Oc1cc2ccccc2cc1C(=O)Nc1cc(OC)ccc1OC, the T/C (dose: 25.0 mg/kg/injection, schedule: Q01DX009 (ip), vehicle: Klucel (hydroxypropylcellulose) (HPC)) is reported as 94 % of control, the T/C (dose: 50.0 mg/kg/injection, schedule: Q01DX009 (ip), vehicle: Klucel (hydroxypropylcellulose) (HPC)) is reported as 101 % of control and the T/C [7] is reported as 94 % of control. The T/C [8] was 95 % of control.

For Cc1no[n+]([O-])c1[N+](=O)[O-], the T/C (dose: 5.0 mg/kg/injection, schedule: Q01DX009 (ip), vehicle: saline) was 100 % of control, the T/C (dose: 10.0 mg/kg/injection, schedule: Q01DX009 (ip), vehicle: saline) was 101 % of control and the T/C (dose: 20.0 mg/kg/injection, schedule: Q01DX009 (ip), vehicle: saline) was 102 % of control.

In the case of Nc1nc(-c2ccc(O)cc2)nc2[nH]ncc12, the T/C [9] is reported as 91 % of control, the T/C [10] is reported as 100 % of control and the T/C [11] is reported as 94 % of control.

With NNS(=O)(=O)CCCCCCCCCCC(=O)O the T/C [4] was 99 % of control, the T/C [5] was 96 % of control and the T/C [12] was 92 % of control. The T/C [6] was 91 % of control and the T/C [13] was 90 % of control.

For CC(=O)n1c(O)c(N=NC(=O)c2ccccc2[N+](=O)[O-])c2ccccc21, the T/C [7] was 86 % of control, the T/C [8] was 93 % of control and the T/C (dose: 400.0 mg/kg/injection, schedule: Q01DX009 (ip), vehicle: Klucel (hydroxypropylcellulose) (HPC)) was 89 % of control.

For c1ccc(C2(c3ccccc3)CC([P+](c3ccccc3)(c3ccccc3)c3ccccc3)=NN2)cc1, the T/C [14] was 108 % of control and the T/C [15] was 115 % of control.

In the case of Cc1c(C2=NCC(C)S2)ccc(O)c1N (configuration not stated), the T/C (dose: 62.5 mg/kg/injection, schedule: Q04DX002 (ip), vehicle: saline with Tween-80) is reported as 93 % of control, the T/C (dose: 125.0 mg/kg/injection, schedule: Q04DX002 (ip), vehicle: saline with Tween-80) is reported as 90 % of control and the T/C (dose: 250.0 mg/kg/injection, schedule: Q04DX002 (ip), vehicle: saline with Tween-80) is reported as 93 % of control.

With CC(C)P(=O)(CCP(=O)(c1ccccc1)c1ccccc1)c1ccccc1 (configuration not stated) the T/C (dose: 50.0 mg/kg/injection, schedule: Q04DX002 (ip), vehicle: saline with Tween-80) was 106 % of control, the T/C (dose: 100.0 mg/kg/injection, schedule: Q04DX002 (ip), vehicle: saline with Tween-80) was 100 % of control and the T/C (dose: 200.0 mg/kg/injection, schedule: Q04DX002 (ip), vehicle: saline with Tween-80) was 87 % of control.

With O=c1[nH]nc2ccccn12 the T/C [9] was 96 % of control, the T/C [1] was 101 % of control and the T/C [10] was 102 % of control. The T/C [2] was 101 % of control, the T/C [11] was 96 % of control and the T/C [3] was 95 % of control.

With CC(NC(=O)C(CCC(=O)O)NC(=O)C(N)Cc1ccc(O)cc1)C(=O)NCCC(=O)NC(Cc1ccc(O)cc1)C(=O)NC(CCC(=O)O)C(=O)NC(C)C(=O)NCCC(=O)NCC(=O)O (configuration not stated) (H-YEA[βAla]YEA[βAla]G-OH; configuration not given here) the T/C [16] was 93 % of control, the T/C [17] was 96 % of control and the T/C [18] was 98 % of control.

For c1cc[c]([Hg][S]c2nc3ccccc3s2)cc1, the T/C [16] was 96 % of control and the T/C [17] was 108 % of control.

In the case of NC(=O)NOCC(N)C(=O)O (configuration not stated), the T/C (dose: 100.0 mg/kg/injection, schedule: Q04DX003 (ip), vehicle: saline) is reported as 102 % of control, the T/C (dose: 200.0 mg/kg/injection, schedule: Q04DX003 (ip), vehicle: saline) is reported as 102 % of control and the T/C [19] is reported as 97 % of control.

In the case of Cc1nn2cnnc2s1, the T/C [20] is reported as 98 % of control, the T/C [14] is reported as 101 % of control and the T/C [15] is reported as 98 % of control. The T/C [21] was 101 % of control.

In the case of C1=CC2C3CC(OCCOC4CC5CC4C4CC=CC54)C(C3)C2C1 (configuration not stated), the T/C [5] is reported as 97 % of control, the T/C [12] is reported as 98 % of control and the T/C [6] is reported as 93 % of control. The T/C [13] was 100 % of control, the T/C [22] was 104 % of control and the T/C [23] was 95 % of control.

With O=Cc1cc2c(cc1[N+](=O)[O-])OCO2 the T/C [1] was 94 % of control, the T/C [12] was 101 % of control and the T/C [2] was 96 % of control. For the same compound, the T/C [13] was 97 % of control, the T/C [3] was 92 % of control and the T/C [23] was 95 % of control.

c1ccc([Si](c2ccccc2)(c2ccccc2)c2ccccc2)cc1 was tested, and the T/C [12] was 90 % of control, the T/C [13] was 90 % of control and the T/C [23] was 88 % of control.

O=C1C=C(C23CC4CC(CC(C4)C2)C3)N2CCCc3cccc(c32)N1 was tested, and the T/C (dose: 100.0 mg/kg/injection, schedule: Q04DX002 (ip), vehicle: Klucel (hydroxypropylcellulose) (HPC)) was 97 % of control, the T/C (dose: 200.0 mg/kg/injection, schedule: Q04DX002 (ip), vehicle: Klucel (hydroxypropylcellulose) (HPC)) was 105 % of control and the T/C (dose: 400.0 mg/kg/injection, schedule: Q04DX002 (ip), vehicle: Klucel (hydroxypropylcellulose) (HPC)) was 97 % of control.

With CN1Cc2c(ccc3c2OCO3)[C@@H]2[C@H](O)Cc3cc4c(cc3[C@@H]21)OCO4 the T/C (dose: 50.0 mg/kg/injection, schedule: Q01DX Z (ip), vehicle: carboxymethylcellulose (CMC)) was 102 % of control, the T/C (dose: 75.0 mg/kg/injection, schedule: Q01DX Z (ip), vehicle: carboxymethylcellulose (CMC)) was 108 % of control and the T/C [17] was 102 % of control. For the same compound, the T/C (dose: 100.0 mg/kg/injection, schedule: Q01DX Z (ip), vehicle: carboxymethylcellulose (CMC)) was 102 % of control, the T/C [12] was 101 % of control and the T/C (dose: 180.0 mg/kg/injection, schedule: Q04DX003 (ip), vehicle: Klucel (hydroxypropylcellulose) (HPC)) was 111 % of control. For the same compound, the T/C [18] was 113 % of control, the T/C [13] was 101 % of control and the T/C (dose: 266.0 mg/kg/injection, schedule: Q04DX003 (ip), vehicle: Klucel (hydroxypropylcellulose) (HPC)) was 98 % of control. For the same compound, the T/C (dose: 266.0 mg/kg/injection, schedule: Q04DX003 (ip), vehicle: saline) was 105 % of control, the T/C (dose: 300.0 mg/kg/injection, schedule: Q01DX Z (ip), vehicle: carboxymethylcellulose (CMC)) was 98 % of control and the T/C [24] was 102 % of control. For the same compound, the T/C [23] was 165 % of control, the T/C [19] was 111 % of control and the T/C (dose: 600.0 mg/kg/injection, schedule: Q04DX003 (ip), vehicle: Klucel (hydroxypropylcellulose) (HPC)) was 157 % of control.

In the case of Cc1ccc(S(=O)(=O)NN=C2CCCCC2)cc1, the T/C (dose: 75.0 mg/kg/injection, schedule: Q01DX001 (ip), vehicle: saline) is reported as 90 % of control, the T/C (dose: 150.0 mg/kg/injection, schedule: Q01DX001 (ip), vehicle: saline) is reported as 90 % of control and the T/C (dose: 300.0 mg/kg/injection, schedule: Q01DX001 (ip), vehicle: saline) is reported as 90 % of control.

NC(=S)N/N=C\c1cc2ccccc2c2ccccc12 was tested, and the T/C [20] was 95 % of control, the T/C [14] was 95 % of control and the T/C [15] was 95 % of control. For the same compound, the T/C [21] was 98 % of control.

For COc1cc([N+](=O)[O-])c(C)c(Br)c1N, the T/C [17] was 100 % of control, the T/C [18] was 100 % of control and the T/C [24] was 96 % of control.

For CC1(C)C=CC(C)(C)c2c(NS(=O)(=O)c3ccccc3)ccc(NS(=O)(=O)c3ccccc3)c21, the T/C [5] was 97 % of control, the T/C [6] was 92 % of control and the T/C [22] was 94 % of control.

For CC(=O)CC(=O)Nc1ccc(C)c(C)c1, the T/C (dose: 100.0 mg/kg/injection, schedule: Q01DX009 (ip), vehicle: saline) was 102 % of control, the T/C (dose: 200.0 mg/kg/injection, schedule: Q01DX009 (ip), vehicle: saline) was 102 % of control and the T/C (dose: 400.0 mg/kg/injection, schedule: Q01DX009 (ip), vehicle: saline) was 93 % of control.
